Key:
Hb [1] = target: T1, Hb (Homo sapiens, UniProt P69905); test: Oxygen equilibrium curve (OEC) studies with normal whole blood; type: cell-based; parameters: Hemoglobin modification, studies using non-sickling AA blood; from tissue; host or cells: non-sickling (AA) human blood, red blood cells; conditions: normal whole blood, 0.5, 1, 2 mM
Experimental: Oxygen equilibrium curve (OEC) studies to determine the effect of the compounds on Hb affinity for oxygen were conducted following standard procedure. Whole blood (30% hematocrit) was incubated in the absence or presence of compounds (0.5 mM, 1.0 mM and 2.0 mM) solubilized in DMSO. […] After equilibration, the sample was removed via syringe and aspirated into an ABL 700 series table top automated blood gas analyzer (Radiometer America, Inc., Westlake, OH) to determine total hemoglobin (tHb), hematocrit (Hct), pH, pCO2, partial pressure of oxygen (pO2), and the Hb-O2 saturation (sO2) values. The measured values of pO2 and sO2 at each oxygen saturation level were then subjected to nonlinear regression analysis using the software Scientist (Micromath, Salt Lake City UT) with the following equation: […]
Aromatic aldehydes are known to prevent hypoxia-induced Hb S polymerization by increasing the Hb affinity for oxygen. We therefore tested the PP compounds in a dose-dependent manner (0.5, 1, 2 mM) for their effect on Hb oxygen binding property. […] These findings confirmed that the potent in vitro activity previously seen in TD7 was at least conserved in the novel PP compounds.
Target sequence in this assay (P69905 2-142 limits assumed): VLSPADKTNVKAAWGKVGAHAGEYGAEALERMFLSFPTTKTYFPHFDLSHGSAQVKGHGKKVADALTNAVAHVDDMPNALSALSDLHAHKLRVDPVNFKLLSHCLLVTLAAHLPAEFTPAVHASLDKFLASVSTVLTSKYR
Target sequence in this assay (P68871 2-147 partner limits assumed): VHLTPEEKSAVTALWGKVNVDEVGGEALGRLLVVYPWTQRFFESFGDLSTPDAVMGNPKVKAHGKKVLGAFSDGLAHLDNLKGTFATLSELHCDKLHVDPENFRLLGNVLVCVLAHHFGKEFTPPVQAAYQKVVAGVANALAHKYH

sickle red blood cells = test: Antisickling study with human sickle blood under 2.5% oxygen; type: cell-based; conditions: Homo sapiens, Erythrocyte, sickle RBCs, 2.5% oxygen, read-out: sickling inhibition; for inhibition at 1000 µM: 1 mM; for inhibition at 500 µM: 0.5 mM
Experimental: (§1) Blood suspensions from subjects with homozygous SCD (resuspended in Hemox™ buffer to a final hematocrit 20%) were incubated under air in the absence or presence of the compounds (0.5 mM, 1 mM and 2 mM) at 37° C. for 1 h to ensure that binding had attained equilibrium. The suspensions were then incubated under hypoxic conditions (2.5% oxygen/97.5% nitrogen) at 37° C. for 1 h. Aliquot samples were fixed with 2% glutaraldehyde solution without exposure to air, and then subjected to microscopic morphological analysis of bright field images (at 40× magnification) of single layer cells on an Olympus BX40 microscope fitted with an Infinity Lite B camera (Olympus), and the coupled Image Capture software. The residual samples were washed in phosphate-buffer saline, and hemolyzed in hypotonic lysis buffer for subsequent Hb-modification and oxygen equilibrium analyses.
The studies described above were conducted using normal whole blood. Next, we investigated whether the improvement in Hb oxygen affinity and the compounds sustained activity also translated to similar effects in SS blood from SCD patients. […] At 1 mM, PP8 and PP9 inhibited nearly 100% of sickling, while PP2, PP6, PP14 inhibited sickling by more than 70%. […] It is clear that the modifications of the present compounds has led to significant improvement in antisickling activity.

sickle Hb = target: T2, sickle Hb (Homo sapiens, UniProt P69905); test: Oxygen equilibrium (P50 shift) of lysates from treated sickle blood; type: cell-based; conditions: 0.5, 1 and 2 mM, SS blood
T2 construct: Blood suspensions from subjects with homozygous SCD; from tissue; host or cells: blood suspensions (20% hematocrit) from donors with homozygous SCD; lysates of the treated red cells
T2 sequence (P69905 2-142 limits assumed): as the sequence (P69905 2-142 limits assumed) above
Experimental: as §1
For oxygen equilibrium studies, approximately 100 μL aliquot samples from the above clarified lysate were added to 4 mL of 0.1M potassium phosphate buffer, pH 7.0, in cuvettes and subjected to hemoximetry analysis using a Hemox™ Analyzer (TCS Scientific Corp.) to assess P50 shifts. Degree of P50 shift (ΔP50) was expressed as percentage fractions of control DMSO-treated samples.

Hb [2] = target: T1, Hb; test: Drug partitioning studies, fixed and unfixed Hb adducts in non-sickling AA blood; type: cell-based; parameters: Hemoglobin modification, studies using non-sickling AA blood; from tissue; host or cells: non-sickling (AA) human blood, red blood cells; conditions: 2 mM; for Fixed Adducts (%) / Unfixed Adduct (%): 6 biological replicates; for Partitioning Ratio (%): fixed relative to unfixed adducts
Experimental: RBC partitioning studies were conducted both for SS RBCs following sickling studies above, or as separate independent studies with non-sickle blood. Briefly, aliquots of blood samples, which had been incubated with test molecules, were lysed either in deionized water (un-fixed), or in water containing 50 mM sodium borohydride (fixed). Samples were subjected to cation exchange HPLC analyses, as described above. Modified […] (Hb adducts) was determined as a proportion of total Hb in each sample, and partitioning ratio was determined as the relative fraction of Hb modification of fixed samples compared to corresponding non-fixed samples. The partitioning ratio is the relative fraction of Hb that was modified intracellularly by molecules that permeated the RBC membrane, as compared to unfixed adducts which reflect Hb binding without RBC membrane permeation.
Target sequence in this assay (P69905 2-142 limits assumed): as above
Target sequence in this assay (P68871 2-147 partner limits assumed): as the sequence (P68871 2-147 partner limits assumed) above

[3] = tested on: RBCs from donors with homozygous SCD; test: Oxygen-independent sickle inhibition in SS blood suspensions under anoxia (100% nitrogen); type: cell-based, human; conditions: anoxia
Experimental: To establish oxygen-independent sickle inhibition, the incubation chamber was subsequently opened and exposed to room air for 15 minutes to ensure complete re-oxygenation and reversal of the sickled cells to normal round cells. Reversal was confirmed by microscopy. The incubation chamber was then closed, and the assay was repeated with incubation in 100% nitrogen gas for 1 hour (for screening), or up to 2.5 h (for time-course studies), with collection and fixation of blood aliquots at defined intervals. Aliquot samples were again subjected to microscopic morphological analysis of bright field images to identify the proportion of sickled and non-sickled cells, and sickle inhibition calculated.

Hb [4] = target: T1, Hb; test: Hb modification (drug-adduct formation) in SS blood suspensions by cation-exchange HPLC; type: binding; parameters: Blood suspensions from subjects with homozygous SCD; from tissue; host or cells: blood suspensions (20% hematocrit) from donors with homozygous SCD; lysates of the treated red cells; conditions: 2 mM, 4 biological replicates
Experimental: All compounds (Comp 1-13) and comparator molecules (VZHE-039, PP-14, INN-310, and Voxelotor) were evaluated following established procedures. Blood samples from individual donors with homozygous SCD (obtained with informed consent) were diluted using Hemox buffer solution with the addition of glucose (10 mM) and BSA (0.2%) to adjust hematocrit of the blood suspensions to 20%, which standardizes the procedure to normalize the ratio of RBCs to drug, for assay consistency and reproducibility. Briefly, blood suspensions were incubated under room air in the presence of various concentrations of test compounds (0-2 mM) at 37° C. for 1 hour in 96-well round bottom plates. Subsequently, the suspensions were incubated with a hypoxic gas mixture (2.5% Oxygen gas/balance Nitrogen gas) at 37° C. for up to 2 hours prior to fixation with 2% glutaraldehyde solution without exposure to air. The fixated blood aliquots were evaluated by microscopic morphological analysis (image analysis on Image J software) to identify the proportion of sickled and non-sickled RBCs, and sickle inhibition calculated based on the % change from negative control (DMSO).
The residual samples were then washed in phosphate-buffered saline, and hemolyzed in hypotonic lysis buffer, with or without sodium borohydride (50 mM). Aliquots obtained from the lysates with or without sodium borohydride (to reduce Schiff base adducts) were also assessed for level of Hb modification (drug-adduct formation) by cation-exchange HPLC (Hitachi D-7000 Series, Hitachi Instruments, Inc., San Jose, CA) with a weak cation-exchange column (Poly CAT A: 50 mm×4.6 mm, Poly LC, Inc., Columbia, MD). Hemoglobin isotype peaks are eluted with a linear gradient of phase B from 0% to 80% at A410 nm (Mobile Phase A: 40 mM Bis-Tris, 2 mM KCN, pH 6.9; Phase B: 40 mM Bis-Tris, 2 mM KCN, 0.2 M sodium chloride, pH 6.55). Clarified lysate from normal human adult […] (Hb A), as well as commercial standards containing approximately equal amounts of Hb F, A, S and C (Helena Laboratories, Beaumont, TX), were utilized as reference isotypes. Reduced samples were used to assess “fixed adduct” formation (dependent on RBC membrane permeability), whereas non-reduced samples assessed drug-adduct formation independent of drug permeability.
Target sequence in this assay (P69905 2-142): as the sequence (P69905 2-142 limits assumed) above
Target sequence in this assay (P68871 with tags, fused parts or gaps E7V partner): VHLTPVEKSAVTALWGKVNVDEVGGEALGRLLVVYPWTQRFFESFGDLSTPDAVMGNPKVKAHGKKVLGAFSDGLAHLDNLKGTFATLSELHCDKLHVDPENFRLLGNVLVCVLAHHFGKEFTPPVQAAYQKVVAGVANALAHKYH

intracellular Hb = target: T3, intracellular Hb (Mus musculus, UniProt P01942); test: In vivo modification of intracellular Hb in wild-type mice; parameters: species or system C57BL/6 mice; conditions: IP 150 mg/kg, 30% PEG300, 6 h
T3 construct: from tissue; host or cells: blood (red cell lysates) of dosed C57BL/6 mice
T3 sequence (P01942 2-142 limits assumed): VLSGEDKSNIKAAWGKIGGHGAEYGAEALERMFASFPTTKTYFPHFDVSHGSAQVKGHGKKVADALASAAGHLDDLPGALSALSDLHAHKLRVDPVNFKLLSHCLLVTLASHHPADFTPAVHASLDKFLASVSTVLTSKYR
T3 sequence (P02088 2-147 partner limits assumed): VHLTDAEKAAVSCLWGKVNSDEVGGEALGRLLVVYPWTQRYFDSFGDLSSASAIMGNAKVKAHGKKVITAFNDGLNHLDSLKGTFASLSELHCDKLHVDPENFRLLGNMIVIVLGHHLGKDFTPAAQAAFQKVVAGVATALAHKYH
Experimental: We tested in vivo pharmacologic (pharmacodynamics) effects of select PP compounds in C57BL/6 mice. The animals were treated with a single intraperitoneal (IP) (150 mg/kg body weight) dose of PP6, PP10, PP14, and TD7, which were formulated with 30% PEG300. Blood samples were obtained prior to treatment (0) and 1, 3 and 6 h post-treatment, via submandibular bleeding, and subjected to hemolysis using standard methods. Clarified lysates, free of cell debris and red blood cell ghosts were analyzed by cation-exchange HPLC to determine the levels of drug-modified hemoglobin (adducts); and to conduct oxygen equilibrium studies to determine degrees of shift in p50 values using methodologies described earlier for in vitro studies on human samples. In a subsequent follow-up experiment, a new excipient obtained from Catalent Pharma Solutions was also used to formulate PP14 and used for a single intraperitoneal (IP) and oral (150 mg/kg body weight) dose. Blood samples were obtained prior to treatment (0) and 1, 3 or 5 h post-treatment, via submandibular bleeding, and used to determine the levels of drug-modified hemoglobin (adducts); and to conduct oxygen equilibrium studies to determine degrees of shift in p50 values as described above.

Row | Structure (SMILES) | effect on Hb oxygen binding property (OEC) (Hb [1]) | Fixed Adducts (%) (Hb [2]) | Unfixed Adduct (%) (Hb [2]) | Partitioning Ratio (%) (Hb [2]) | Hb Modification (%) (Hb [4]) | modified Hb (intracellular Hb) | inhibition at 1000 µM (sickle red blood cells) | increase of Hb affinity for oxygen in sickle blood (in words) (sickle Hb) | polymer destabilizing effect / sickle inhibition in anoxia (in words) [3] | inhibition at 500 µM (sickle red blood cells)
1 | COC(=O)c1ccc(COc2ccc(OC)cc2C=O)nc1 [PP9] | most significant activities | – | – | – | – | – | ~100% | only marginally increasing Hb affinity for oxygen | – | –
2 | COC(=O)c1ncccc1COc1ccc(OC)cc1C=O [PP8, Methyl 3-((2-formyl-4-methoxyphenoxy)methyl)picolinate] | – | – | – | – | – | – | ~100% | only marginally increasing Hb affinity for oxygen | – | > 35%
3 | COC(=O)c1cccc(COc2ccc(OC)cc2C=O)n1 [PP3, Methyl 6-((2-formyl-4-methoxyphenoxy)methyl)picolinate] | – | – | – | – | – | – | – | only marginally increasing Hb affinity for oxygen | – | –
4 | COC(=O)c1cccnc1COc1ccc(OC)cc1C=O [PP2, Methyl 2-((2-formyl-4-methoxyphenoxy)methyl)nicotinate] | most significant activities | – | – | – | – | – | > 70% | only marginally increasing Hb affinity for oxygen | – | > 35%

Further lines, with some results ahead:

Row | effect on Hb oxygen binding property (OEC) (Hb [1]) | Fixed Adducts (%) (Hb [2]) | Unfixed Adduct (%) (Hb [2]) | Partitioning Ratio (%) (Hb [2]) | Hb Modification (%) (Hb [4]) | modified Hb (intracellular Hb) | Structure (SMILES) | inhibition at 1000 µM (sickle red blood cells) | increase of Hb affinity for oxygen in sickle blood (in words) (sickle Hb) | polymer destabilizing effect / sickle inhibition in anoxia (in words) [3] | inhibition at 500 µM (sickle red blood cells)
5 | – | 82.0 ± 3.1% | 79.7 ± 4.3% | 103.0 ± 1.7% | 65.7 ± 6.0% | – | COc1ccc(OCc2ccccn2)c(C=O)c1 [INN-310, reference compound] | – | – | only weak potency in anoxia | –
6 | most significant activities | – | – | – | – | 16.9±1.4% | COC(=O)c1cccnc1COc1cccc(O)c1C=O [PP6, Methyl 2-((2-formyl-3-hydroxyphenoxy)methyl)nicotinate] | > 70% | only marginally increasing Hb affinity for oxygen | – | > 35%
7 | – | 72.7 ± 4.1% | 69.4 ± 7.5% | 105.2 ± 5.9% | 69.1 ± 11.8% | – | O=Cc1c(F)cc(F)cc1OCc1ccccn1 [Comp 9, 2,4-difluoro-6-(pyridin-2-ylmethoxy)benzaldehyde] | – | – | completely negates the polymer destabilization effects | –
8 | – | 80.4 ± 9.1% | 80.8 ± 5.9% | 99.4 ± 4.2% | 99.8 ± 0.4% | – | O=Cc1c(OCc2cccnc2)ccc(F)c1O [Comp 12, 3-fluoro-2-hydroxy-6-(pyridin-3-ylmethoxy)benzaldehyde] | – | – | significantly reduced the potency of polymer inhibition | –

Reference: patent publication US20240109843A1, “BENZALDEHYDE COMPOUNDS WITH DIRECT POLYMER DESTABILIZING EFFECTS TO TREAT SICKLE CELL DISEASE” (VIRGINIA COMMONWEALTH UNIVERSITY, priority 2018, published 2024)
